The structures appear in SMILES notation. ± gives the expanded uncertainty stated by the source.

By refractive index is commonly meant a measure of how strongly the sample bends light. As usually defined, the mass density is mass per unit of volume.

The nature of series [1]: Molar enthalpy of transition or fusion. As to conditions: Crystal; DSC.
The conditions of series [2]: for mass density: 293.15 K, 101.33 kPa, Liquid.
Series [3] is described as follows: refractive index (Na D-line) (dimensionless). The note with it: 293.15 K; 101.33 kPa; Liquid; Standard Abbe refractometry.

Consider `O=P(c1ccccc1)(c1ccccc1)c1cc(O)ccc1O` [(2,5-dihydroxyphenyl)diphenyl phosphine oxide], for which the “Molar enthalpy of transition or fusion” value in series [1] was determined as 8.91 ± 0.239 kcal/mol. Besides, the Normal melting temperature in series [2] (Crystal, DTA) stood at 214.60 ± 0.5 °C.

Regarding `CCOCCO` [2-ethoxyethan-1-ol], the refractive index in series [3] worked out at 1.4065 ± 0.0007. Besides, in series [2] (Vibrating tube method), the mass density is recorded as 929 ± 1 kg/m3.

As for `Cc1ccccc1` [toluene], the refractive index in series [3] came out at 1.4967 ± 0.0007. The mass density in series [2] (Vibrating tube method) stood at 866 ± 1 kg/m3.

`CC(C)=O` [acetone]: the refractive index in series [3] is 1.359 ± 0.0007. Besides, the mass density in series [2] (Vibrating tube method) is 790 ± 1 kg/m3.

With `CCO` [ethanol], in series [3], the refractive index came out at 1.366 ± 0.0007. Further, the mass density in series [2] (Vibrating tube method) amounted to 790 ± 1 kg/m3.

Take `CO` [methanol]: in series [3], the refractive index worked out at 1.3301 ± 0.0007. Besides, in series [2], the mass density is listed as 792 ± 1 kg/m3.

For the origin of these results see the NIST ThermoML archive (doi:10.1021/je900730w).
